# Where two headings read alike, the source gives them in different places.
# Legend:
# lettuce [1] = tested on: lettuce
# Protocol: (§1) Absorbent cotton was spread on a 4.5 cm dish, and thereto was added 10 ml of a test solution. Seeds (10 seeds) were added thereto, grown at 23° C. for 4 days in the dark, and thereafter cultured at 23° C. for 3 days in the light (about 3000 lux).
# radish = tested on: radish
# Protocol: as §1
# tomato = assay: Germination and seedling growth of tomato on absorbent cotton with test solution; type: in vivo, tomato (Lycopersicon esculentum)
# Protocol: as §1
# FIG. 3 is a drawing illustrating the state of germination within each of the dishes similarly to FIG. 1. FIG. 4 is a drawing comparing the length of each embryonic axis (shoot) and that of each root similarly to FIG. 2.
# FIG. 11 is a drawing illustrating the state of seeds within each of the dishes similarly to FIG. 1, and each control is shown. […] In addition, the lengths of each shoot and root are presented.
# (§2) Indole-3-acetate (IAA) was used as the auxin.
# lettuce [2] = tested on: lettuce; remark: listed apart in the source
# Protocol: For control 1, absorbent cotton was spread on a 4.5 cm dish, and thereto was added 10 ml of water. Seeds (10 seeds) were added thereto, grown at 23° C. for 4 days in the dark, and thereafter cultured at 23° C. for 3 days in the light (about 3000 lux).
# perennial ryegrass = tested on: perennial ryegrass
# Protocol: as §1
# FIG. 7 is a drawing illustrating the state of seeds within each of the dishes similarly to FIG. 1. FIG. 8 is a drawing comparing the length of each shoot and that of each root similarly to FIG. 2.
# rice = conditions: 23° C. 4 days dark + 3 days light
# Protocol: as §1
# FIG. 1 is a drawing illustrating the state of seeds within each of the dishes. FIG. 2 is a drawing comparing the length of each shoot and the length of each root. […] For reference, the length of the label is 5 mm.
# Veronica persica Poir = assay: Germination and seedling growth of Veronica persica Poir with test solution; type: in vivo
# Protocol: as §1
# FIG. 10 is a drawing illustrating the state of seeds within each of the dishes similarly to FIG. 1, and each control is shown. […] In addition, the lengths of each embryonic axis shoots and root are indicated.
# as §2
# [3] = volcanic ash+0.1% NaHCO3 (100 g and 0.1% NaHCO3 solution 28 g)
# [4] = volcanic ash+1% NaHCO3 (100 g and 1% NaHCO3 solution 28 g)
# [5] = volcanic ash+10% NaHCO3 (100 g and saturated sodium bicarbonate solution 28 g)
compound,measurement,setting,value
"O=C([O-])O.[Na+] [NaHCO3, sodium bicarbonate]",length of the root,lettuce [1]; NaHCO3 0.003%,18.7±4.7 mm
same,length of the shoot,lettuce [1]; NaHCO3 0.003%,14.0±0.6 mm
same,length of the root,lettuce [1]; NaHCO3 0.01%,21.0±0.6 mm
same,length of the shoot,lettuce [1]; NaHCO3 0.01%,24.3±0.9 mm
same,length of the root,lettuce [1]; NaHCO3 0.03%,14.3±1.9 mm
same,length of the shoot,lettuce [1]; NaHCO3 0.03%,24.3±0.3 mm
same,length of the root,lettuce [1]; NaHCO3 0.1%,11.0±0.6 mm
same,length of the shoot,lettuce [1]; NaHCO3 0.1%,15.7±0.3 mm
same,length of the root,lettuce [1]; NaHCO3 0.3%,3.7±0.3 mm
same,length of the shoot,lettuce [1]; NaHCO3 0.3%,6.7±0.3 mm
same,length of the root,lettuce [1]; NaHCO3 1%,0±0 mm
same,length of the shoot,lettuce [1]; NaHCO3 1%,0±0 mm
same,length of the embryonic axis (shoot),radish; NaHCO3 0.003%,66.3±4.1 mm
same,length of the root,radish; NaHCO3 0.003%,37.0±1.5 mm
same,length of the embryonic axis (shoot),radish; NaHCO3 0.01%,74.0±1.5 mm
same,length of the root,radish; NaHCO3 0.01%,71.3±1.9 mm
same,length of the embryonic axis (shoot),radish; NaHCO3 0.03%,60.0±3.1 mm
same,length of the root,radish; NaHCO3 0.03%,80.7±5.9 mm
same,length of the embryonic axis (shoot),radish; NaHCO3 0.1%,66.7±3.4 mm
same,length of the root,radish; NaHCO3 0.1%,22.0±1.5 mm
same,length of the embryonic axis (shoot),radish; NaHCO3 0.3%,19.3±0.7 mm
same,length of the root,radish; NaHCO3 0.3%,7.3±1.3 mm
same,length of the embryonic axis (shoot),radish; NaHCO3 1%,0±0 mm
same,length of the root,radish; NaHCO3 1%,0±0 mm
same,germination,tomato; in vivo,germination does not occur
same,length of the shoot,tomato; in vivo,5 mm
same,development of the root,lettuce [2]; [3],21.0±0.8 mm
same,development of the shoot,lettuce [2]; [3],33.4±1.1 mm
same,length of the root,lettuce [2]; [4],5.4±1.1 mm
same,length of the shoot,lettuce [2]; [4],26.0±1.5 mm
same,development of the root,lettuce [2]; [5],0 mm
same,development of the shoot,lettuce [2]; [5],0 mm
same,length of the root,perennial ryegrass; NaHCO3 0.003%,25.3±0.9 mm
same,length of the shoot,perennial ryegrass; NaHCO3 0.003%,24.7±0.3 mm
same,length of the root,perennial ryegrass; NaHCO3 0.01%,27.3±1.5 mm
same,length of the shoot,perennial ryegrass; NaHCO3 0.01%,42.0±0.6 mm
same,length of the root,perennial ryegrass; NaHCO3 0.03%,26.0±0.6 mm
same,length of the shoot,perennial ryegrass; NaHCO3 0.03%,44.3±1.5 mm
same,length of the root,perennial ryegrass; NaHCO3 0.1%,28.0±1.5 mm
same,length of the shoot,perennial ryegrass; NaHCO3 0.1%,55.7±0.7 mm
same,length of the root,perennial ryegrass; NaHCO3 0.3%,4.7±0.3 mm
same,length of the shoot,perennial ryegrass; NaHCO3 0.3%,19.0±0.6 mm
same,length of the root,perennial ryegrass; NaHCO3 1%,0±0 mm
same,length of the shoot,perennial ryegrass; NaHCO3 1%,0±0 mm
same,length of the root,rice; NaHCO3 0.003%,32.0±9.3 mm
same,length of the shoot,rice; NaHCO3 0.003%,11.0±1.0 mm
same,length of the root,rice; NaHCO3 0.01%,18.0±9.7 mm
same,length of the shoot,rice; NaHCO3 0.01%,10.0±0 mm
same,length of the root,rice; NaHCO3 0.03%,23.7±0.9 mm
same,length of the shoot,rice; NaHCO3 0.03%,15.0±1.0 mm
same,length of the root,rice; NaHCO3 0.1%,20.7±2.3 mm
same,length of the shoot,rice; NaHCO3 0.1%,13.3±0.9 mm
same,length of the root,rice; NaHCO3 0.3%,2.3±0.3 mm
same,length of the shoot,rice; NaHCO3 0.3%,7.3±1.5 mm
same,length of the root,rice; NaHCO3 1%,0±0 mm
same,length of the shoot,rice; NaHCO3 1%,3.3±0.3 mm
same,length of the root,Veronica persica Poir; in vivo,9 mm
same,length of the shoot,Veronica persica Poir; in vivo,8 mm
"O=C(O)Cc1c[nH]c2ccccc12 [IAA, indole-3-acetate]",length of the root,"tomato; Example 8, IAA 10^−4 M alone",30 mm
same,length of the shoot,"tomato; Example 8, IAA 10^−4 M alone",20 mm
same,length of the root,"tomato; Example 8, IAA 10^−5 M alone",41 mm
same,length of the shoot,"tomato; Example 8, IAA 10^−5 M alone",23 mm
same,length of the root,"Veronica persica Poir; Example 9, IAA 10^−4 M alone",11 mm
same,length of the shoot,"Veronica persica Poir; Example 9, IAA 10^−4 M alone",8 mm
same,length of the root,"Veronica persica Poir; Example 9, IAA 10^−5 M alone",22 mm
same,length of the shoot,"Veronica persica Poir; Example 9, IAA 10^−5 M alone",13 mm

# Source: patent publication US20070015663A1, “Growth regulator and process for growth regulation of plant” (SUPER BLAST SYSTEMS CO., LTD., priority 2001, published 2007)
